Where “and” joins values, the source holds several entries; their conditions need not be identical. Equal values may be shown once. Bounds are passed on as bounds.

Chain of wild-type Epidermal Growth Factor Receptor (EGFR) (P00533 669-1210): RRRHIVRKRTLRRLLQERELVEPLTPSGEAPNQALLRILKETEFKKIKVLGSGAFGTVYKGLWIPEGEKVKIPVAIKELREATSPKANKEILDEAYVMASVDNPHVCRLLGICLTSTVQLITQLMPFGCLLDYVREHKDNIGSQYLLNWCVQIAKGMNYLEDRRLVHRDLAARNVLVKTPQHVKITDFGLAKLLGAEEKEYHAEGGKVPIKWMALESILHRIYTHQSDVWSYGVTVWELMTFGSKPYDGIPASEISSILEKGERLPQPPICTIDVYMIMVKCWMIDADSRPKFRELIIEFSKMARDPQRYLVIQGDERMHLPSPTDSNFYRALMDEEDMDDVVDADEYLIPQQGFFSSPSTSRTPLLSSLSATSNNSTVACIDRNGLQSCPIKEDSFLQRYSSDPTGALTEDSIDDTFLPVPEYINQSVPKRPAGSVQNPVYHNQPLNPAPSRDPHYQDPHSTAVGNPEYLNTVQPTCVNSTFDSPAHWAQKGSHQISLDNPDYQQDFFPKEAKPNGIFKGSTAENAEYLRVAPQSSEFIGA

The assay addresses wild-type Epidermal Growth Factor Receptor (EGFR) (Homo sapiens (Human), UniProt P00533). The assay is described as follows: WT-EGFR kinase assay (TR-FRET, 2 mM ATP). The format is biochemical. Conditions: median or individual measurements, Table 3, read-out: EGFR Wildtyp-2mM ATP IC50 [mol/l] (median). An excerpt:
Inhibitory activity of compounds of the present invention against wild-type Epidermal Growth Factor Receptor (EGFR) was quantified employing the TR-FRET based EGFR assay as described in the following paragraphs.
Recombinant fusion protein of N-terminal Glutathion-S-Transferase (GST) and a fragment of human EGFR (amino acids R669 to A1210), expressed in Sf9 insect cells and purified via affinity chromatography using Glutathion Sepharose as described above, was used as kinase. As substrate for the kinase reaction the biotinylated peptide biotin-Ahx-AEEEEYFELVAKKK (C-terminus in amide form) was used which can be purchased e.g. form the company Biosynthan GmbH (Berlin-Buch, Germany).
For the assay 50 nl of a 100 fold concentrated solution of the test compound in DMSO was pipetted into either a black low volume 384 well microtiter plate or a black 1536 well microtiter plate (both Greiner Bio-One, Frickenhausen, Germany), 2 μL of a solution of EGFR in aqueous assay buffer [50 mM Hepes pH 7.0, 10 mM MgCl2, 1 mM dithiothreitol, 0.5 mM EGTA, 0.3 mM activated sodium ortho-vanadate, 0.005% (w/v) bovine serum albumin, 0.005% (v/v) Tween-20] were added and the mixture was incubated for 15 min at 22° C. to allow pre-binding of the test compounds to the enzyme before the start of the kinase reaction. Then the kinase reaction was started by the addition of 3 μL of a solution of adenosine-tri-phosphate (ATP, 3.33 mM=>final conc. in the 5 μL assay volume is 2 mM) and substrate (1.67 μM=>final conc. in the 5 μL assay volume is 1 μM) in assay buffer and the resulting mixture was incubated for a reaction time of 30 min at 22° C. The concentration of EGFR was adjusted depending of the activity of the enzyme lot and was chosen appropriate to have the assay in the linear range, typical concentration was 7.6 pg/μL. The reaction was stopped by the addition of 3 μL of a solution of HTRF detection reagents (83.3 nM streptavidine-XL665 [Cisbio Bioassays, Codolet, France] and 1.67 nM PT66-Tb-Cryptate, a terbium-cryptate labelled anti-phospho-tyrosine antibody from Cisbio Bioassays [instead of the PT66-Tb-cryptate PT66-Eu-Chelate from Perkin Elmer can also be used]) in an aqueous EDTA-solution (133.3 mM EDTA, 0.2% (w/v) bovine serum albumin in 50 mM HEPES pH 7.5).
The resulting mixture was incubated 1 h at 22° C. to allow the binding of the biotinylated phosphorylated peptide to the streptavidine-XL665 and the PT66-Tb-Cryptate. Subsequently the amount of phosphorylated substrate was evaluated by measurement of the resonance energy transfer from the PT66-Tb-Cryptate to the streptavidine-XL665. Therefore, the fluorescence emissions at 620 nm and 665 nm after excitation at 337 nm were measured in a HTRF reader, e.g. a Pherastar (BMG Labtechnologies, Offenburg, Germany) or a Viewlux (Perkin-Elmer). The ratio of the emissions at 665 nm and at […] was taken as the measure for the amount of phosphorylated substrate. The data were normalised (enzyme reaction without inhibitor=0% inhibition, all other assay components but no enzyme=100% inhibition).
`CN1CC(CC(F)(F)F)c2[nH]c(-c3ccnc(NC(=O)C(CC(F)F)c4ccc(F)cc4)c3)c(Nc3cscn3)c2C1=O` (single isomer, unassigned) [Example 55, (2R or S)-4,4-difluoro-2-(4-fluorophenyl)-N-{4-[(7R or S)-5-methyl-4-oxo-3-[(1,3-thiazol-4-yl)amino]-7-(2,2,2-trifluoroethyl)-4,5,6,7-tetrahydro-1H-pyrrolo[3,2-c]pyridin-2-yl]pyridin-2-yl}butanamide]: the IC50 is 10.8 µM and 9.47 µM.

Regarding `Cc1cn(C)c(=O)c2c(Nc3ccccc3)c(-c3ccnc(NC(=O)C(CC(F)F)c4ccc(F)cc4)c3)[nH]c12` (single isomer, unassigned) [Example 12, N-[4-(3-anilino-5,7-dimethyl-4-oxo-4,5-dihydro-1H-pyrrolo[3,2-c]pyridin-2-yl)pyridin-2-yl]-4,4-difluoro-2-(4-fluorophenyl)butanamide], the IC50 was > 20 µM. Consider `CN1CC(CC(F)(F)F)c2[nH]c(-c3ccnc(NC(=O)C(CC(F)F)c4ccc(F)cc4)c3)c(Nc3ccccc3)c2C1=O` (centres unmarked) [Example 17, N-{4-[3-anilino-5-methyl-4-oxo-7-(2,2,2-trifluoroethyl)-4,5,6,7-tetrahydro-1H-pyrrolo[3,2-c]pyridin-2-yl]pyridin-2-yl}-4,4-difluoro-2-(4-fluorophenyl)butanamide], for which the IC50 was > 20 µM and > 5.7 µM and 3.7 µM and 3.2 µM. For `CN1CC(CC2CC2)c2[nH]c(-c3ccnc(NC(=O)Cc4ccc(F)cc4)c3)c(Nc3ccccc3)c2C1=O` (racemic) [Example 18, N-{4-[3-anilino-7-(cyclopropylmethyl)-5-methyl-4-oxo-4,5,6,7-tetrahydro-1H-pyrrolo[3,2-c]pyridin-2-yl]pyridin-2-yl}-2-(4-fluorophenyl)acetamide], the IC50 is 4.3 µM. For the compound `CC1CN(C)C(=O)c2c1[nH]c(-c1ccnc(NC(=O)C(C)c3ccc(F)cc3)c1)c2Nc1ccccc1` (racemic) [Example 9, N-{4-[(7RS)-3-anilino-5,7-dimethyl-4-oxo-4,5,6,7-tetrahydro-1H-pyrrolo[3,2-c]pyridin-2-yl]pyridin-2-yl}-2-(4-fluorophenyl)propanamide], the IC50 was found to be 13 µM. With `CN1CC(CC(F)(F)F)c2[nH]c(-c3ccnc(NC(=O)C(CC(F)F)c4ccc(F)cc4)c3)c(Nc3cscn3)c2C1=O` (single isomer, unassigned) [Example 54, (2R or S)-4,4-difluoro-2-(4-fluorophenyl)-N-{4-[(7R or S)-5-methyl-4-oxo-3-[(1,3-thiazol-4-yl)amino]-7-(2,2,2-trifluoroethyl)-4,5,6,7-tetrahydro-1H-pyrrolo[3,2-c]pyridin-2-yl]pyridin-2-yl}butanamide] the figure was > 20 µM.

For `CCC1CNC(=O)c2c1[nH]c(-c1ccnc(NC(=O)Cc3ccc(F)cc3)c1)c2Nc1ccccc1` (single isomer, unassigned) [Example 2, N-{4-[3-anilino-7-ethyl-4-oxo-4,5,6,7-tetrahydro-1H-pyrrolo[3,2-c]pyridin-2-yl]pyridin-2-yl}-2-(4-fluorophenyl)acetamide], the IC50 stood at 0.19 µM. Then `CN1CC(CC2CC2)c2[nH]c(-c3ccnc(NC(=O)Cc4ccc(F)cc4)c3)c(Nc3cscn3)c2C1=O` (racemic) [Example 49, N-{4-[(7RS)-7-(cyclopropylmethyl)-5-methyl-4-oxo-3-(1,3-thiazol-4-ylamino)-4,5,6,7-tetrahydro-1H-pyrrolo[3,2-c]pyridin-2-yl]pyridin-2-yl}-2-(4-fluorophenyl)acetamide], with > 20 µM; and `Cc1cn(C)c(=O)c2c(Nc3ccccc3)c(-c3ccnc(NC(=O)C(C)c4ccc(F)cc4)c3)[nH]c12` (single isomer, unassigned) [Example 40, N-[4-(3-anilino-5,7-dimethyl-4-oxo-4,5-dihydro-1H-pyrrolo[3,2-c]pyridin-2-yl)pyridin-2-yl]-2-(4-fluorophenyl)propanamide], with 17 µM.

Take `Cn1ccc2[nH]c(-c3ccnc(NC(=O)C(CC(F)F)c4ccc(F)cc4)c3)c(Nc3ccccc3)c2c1=O` (single isomer, unassigned) [Example 29, N-[4-(3-anilino-5-methyl-4-oxo-4,5-dihydro-1H-pyrrolo[3,2-c]pyridin-2-yl)pyridin-2-yl]-4,4-difluoro-2-(4-fluorophenyl)butanamide]: the IC50 is > 20 µM. Take `CCC1CNC(=O)c2c1[nH]c(-c1ccnc(NC(=O)Cc3ccc(F)cc3)c1)c2Nc1ccccc1` (single isomer, unassigned) [Example 3, N-{4-[3-anilino-7-ethyl-4-oxo-4,5,6,7-tetrahydro-1H-pyrrolo[3,2-c]pyridin-2-yl]pyridin-2-yl}-2-(4-fluorophenyl)acetamide]: the IC50 came out at 0.32 µM. As for `CN1CC(CC(F)(F)F)c2[nH]c(-c3ccnc(NC(=O)C(CC(F)F)c4ccc(F)cc4)c3)c(Nc3cscn3)c2C1=O` (single isomer, unassigned) [Example 56, (2R or S)-4,4-difluoro-2-(4-fluorophenyl)-N-{4-[(7R or S)-5-methyl-4-oxo-3-[(1,3-thiazol-4-yl)amino]-7-(2,2,2-trifluoroethyl)-4,5,6,7-tetrahydro-1H-pyrrolo[3,2-c]pyridin-2-yl]pyridin-2-yl}butanamide], the IC50 was > 20 µM. Then `CN1CC(CC2CC2)c2[nH]c(-c3ccnc(NC(=O)Cc4ccc(F)cc4)c3)c(Nc3ccccc3)c2C1=O` (single isomer, unassigned) [Example 19, N-{4-[3-anilino-7-(cyclopropylmethyl)-5-methyl-4-oxo-4,5,6,7-tetrahydro-1H-pyrrolo[3,2-c]pyridin-2-yl]pyridin-2-yl}-2-(4-fluorophenyl)acetamide], with 1.8 µM; and `CC1CN(C)C(=O)c2c1[nH]c(-c1ccnc(NC(=O)Cc3ccc(F)cc3)c1)c2Nc1ccccc1` (single isomer, unassigned; (+)) [Example 8, (+)-N-{4-[3-anilino-5,7-dimethyl-4-oxo-4,5,6,7-tetrahydro-1H-pyrrolo[3,2-c]pyridin-2-yl]pyridin-2-yl}-2-(4-fluorophenyl)acetamide], with 3 µM. As for `O=C1N[C@@H]2CCC[C@@H]2c2[nH]c(-c3ccnc(NC(=O)C(CC(F)F)c4ccc(F)cc4)c3)c(Nc3ccccc3)c21` (single isomer, unassigned; (+)) [Example 22, (+)-(2R or S)—N-{4-[cis-3-anilino-4-oxo-1,4,5,5a,6,7,8,8a-octahydrocyclopenta[b]pyrrolo[2,3-d]pyridin-2-yl]pyridin-2-yl}-4,4-difluoro-2-(4-fluorophenyl)butanamide], the IC50 is > 20 µM. With `CC1CN(C)C(=O)c2c1[nH]c(-c1ccnc(NC(=O)Cc3ccc(F)cc3)c1)c2Nc1ccccc1` (racemic) [Example 6, N-{4-[3-anilino-5,7-dimethyl-4-oxo-4,5,6,7-tetrahydro-1H-pyrrolo[3,2-c]pyridin-2-yl]pyridin-2-yl}-2-(4-fluorophenyl)acetamide] the figure was 1.4 µM; with `O=C1N[C@@H]2CCC[C@@H]2c2[nH]c(-c3ccnc(NC(=O)C(CC(F)F)c4ccc(F)cc4)c3)c(Nc3ccccc3)c21` (single isomer, unassigned; (+)) [Example 25, (+)-(2R or S)—N-{4-[cis-3-anilino-4-oxo-1,4,5,5a,6,7,8,8a-octahydrocyclopenta[b]pyrrolo[2,3-d]pyridin-2-yl]pyridin-2-yl}-4,4-difluoro-2-(4-fluorophenyl)butanamide], > 20 µM.

(Values after patent publication US20230365554A1, “SUBSTITUTED PYRROLO-PYRIDINONE DERIVATIVES AND THERAPEUTIC USES THEREOF” (The Broad Institute, Inc., priority 2020, published 2023).)
